In ChEMBL document CHEMBL4261578, “Structure-Function Analysis of Immune Checkpoint Receptors to Guide Emerging Anticancer Immunotherapy” (J Med Chem, 2018):
Numbered stars: 1 amine (or outer) side, 2 acyl side, 3 side chain; on linkers, the order of the positions; unused ones are H or OH. Bridge positions count the residues as written; N and C are the ends. Square brackets hold non-standard residues; d marks the D form. Peptide text beside a SMILES is read from it. ξ: configuration not given here. X1 = CC(C)C[C@H](N[*:1])C(=O)NC(=O)[*:2]; NMeNle = CCCC[C@H](NC)C(=O)O; NMeA = CN[C@@H](C)C(=O)O; ξP = O=C(O)C1CCCN1; ξC = NC(CS)C(=O)O; Sar = CNCC(=O)O

Biological target: Programmed cell death 1 ligand 1 (Homo sapiens, UniProt Q9NZQ7)
Assay: Inhibition of PD-L1 (unknown origin)

Programmed cell death 1 ligand 1, sequence (Q9NZQ7 whole entry): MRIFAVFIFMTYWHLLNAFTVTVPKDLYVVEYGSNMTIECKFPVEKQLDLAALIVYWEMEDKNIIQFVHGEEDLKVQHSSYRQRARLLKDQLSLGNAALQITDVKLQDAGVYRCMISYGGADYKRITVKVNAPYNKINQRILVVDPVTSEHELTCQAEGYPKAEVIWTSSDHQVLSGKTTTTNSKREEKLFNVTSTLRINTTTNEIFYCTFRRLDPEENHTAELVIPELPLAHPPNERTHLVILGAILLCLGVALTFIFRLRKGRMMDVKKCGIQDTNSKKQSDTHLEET

CCCC[C@H]1C(=O)N(C)[C@@H](CCCC)C(=O)N[C@@H](CCCNC(=N)N)C(=O)NC(C(=O)NCC(N)=O)CSCC(=O)N[C@@H](Cc2ccccc2)C(=O)N(C)[C@@H](C)C(=O)N[C@@H](CC(N)=O)C(=O)N2CCCC2C(=O)N[C@@H](CC(C)C)C(=O)NC(=O)N(C)CC(=O)NCC(=O)N[C@@H](Cc2c[nH]c3ccccc23)C(=O)N[C@@H](Cc2c[nH]c3ccccc23)C(=O)N1C (stereo partly specified) ({CH2CO}-F[NMeA]N[ξP][X1][Sar]GWW[NMeNle][NMeNle]R[ξC]G-NH2; thioether N-13)
IC50: 5.2 nM
